Blank lines part the entries; values can stand above or below the compound they belong to.
What was measured:
[1] = biological target: T1, c-Jun N-terminal kinase, JNK (Homo sapiens) (UniProt P45983+P53779+P45984); experiment: Inhibition of JNK (unknown origin) at 1.0 uM relative to control; format: protein assay
[2] = biological target: Tumor necrosis factor (Homo sapiens) (UniProt P01375); experiment: Inhibition of TNF-alpha secretion in human THP-1 cells; parameters: concentration or dose not given beside the values; conditions: concentration not given here
Chain of Tumor necrosis factor (Homo sapiens) (P01375 whole entry, looked up): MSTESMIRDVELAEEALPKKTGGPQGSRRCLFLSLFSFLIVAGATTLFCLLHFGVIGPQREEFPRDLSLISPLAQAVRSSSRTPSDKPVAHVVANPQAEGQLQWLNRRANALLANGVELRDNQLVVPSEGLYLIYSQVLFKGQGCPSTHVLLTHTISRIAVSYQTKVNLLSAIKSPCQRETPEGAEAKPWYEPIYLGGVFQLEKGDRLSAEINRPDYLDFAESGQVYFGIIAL

[3] = Neuroprotective activity against neurons (unknown origin) assessed as rescue by measuring cytokine level at 10 uM relative to control; format: functional, Homo sapiens, Neuron
[4] = Drug concentration in mouse brain at 10 mg/kg, iv administered once daily measured after 2 hrs; format: ADME, organism-based; conditions: read-out: Ct
[5] = Drug concentration in mouse plasma at 10 mg/kg, iv administered once daily measured after 2 hrs; format: ADME, organism-based
[6] = biological target: T1, c-Jun N-terminal kinase, JNK (Homo sapiens); experiment: Inhibition of JNK (unknown origin) at 10 uM relative to control; format: protein assay
THP-1 [7] = experiment: Antinflammatory activity in human THP-1 cells assessed as reduction of TNF-alpha at 10 uM relative to control; format: functional; parameters: scale not given: the % may be the effect or the level left
[8] = biological target: T2, MAP kinase p38 (Homo sapiens) (UniProt O15264+Q15759+Q16539+P53778); experiment: Inhibition of p38 (unknown origin) at 10 uM relative to control; format: protein assay
[9] = Neuroprotective activity against neurons (unknown origin) assessed as rescue by measuring cytokine level at 1.0 uM relative to control; format: functional, Homo sapiens, Neuron
[10] = biological target: T2, MAP kinase p38 (Homo sapiens); experiment: Inhibition of p38 (unknown origin) at 1.0 uM relative to control; format: protein assay
THP-1 [11] = experiment: Antinflammatory activity in human THP-1 cells assessed as reduction of TNF-alpha at 1.0 uM relative to control; format: functional
[12] = biological target: Mitogen-activated protein kinase 14 (Homo sapiens) (UniProt Q16539); experiment: Inhibition of recombinant p38alpha MAPK (unknown origin) at 10 uM preincubated for 10 mins followed by substrate addition and measured after 40 mins in the presence of ATP by ADP-Glo assay; conditions: time 60.0 min
Chain of Mitogen-activated protein kinase 14 (Homo sapiens) (Q16539 whole entry): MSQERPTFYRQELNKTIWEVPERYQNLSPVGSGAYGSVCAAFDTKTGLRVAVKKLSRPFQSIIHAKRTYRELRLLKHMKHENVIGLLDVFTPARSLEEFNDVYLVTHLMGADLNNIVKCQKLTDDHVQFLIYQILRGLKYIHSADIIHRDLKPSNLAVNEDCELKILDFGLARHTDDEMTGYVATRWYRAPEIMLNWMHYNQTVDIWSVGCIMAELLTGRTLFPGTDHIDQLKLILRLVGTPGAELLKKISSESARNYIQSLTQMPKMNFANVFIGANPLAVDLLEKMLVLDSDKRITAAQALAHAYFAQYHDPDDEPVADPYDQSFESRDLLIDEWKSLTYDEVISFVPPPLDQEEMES

Histamine H2 receptor = Histamine H2 receptor (Homo sapiens, UniProt P25021); experiment: Antagonist activity at histamine H2 receptor (unknown origin) assessed as inhibition constant
Chain of Histamine H2 receptor (P25021 whole entry): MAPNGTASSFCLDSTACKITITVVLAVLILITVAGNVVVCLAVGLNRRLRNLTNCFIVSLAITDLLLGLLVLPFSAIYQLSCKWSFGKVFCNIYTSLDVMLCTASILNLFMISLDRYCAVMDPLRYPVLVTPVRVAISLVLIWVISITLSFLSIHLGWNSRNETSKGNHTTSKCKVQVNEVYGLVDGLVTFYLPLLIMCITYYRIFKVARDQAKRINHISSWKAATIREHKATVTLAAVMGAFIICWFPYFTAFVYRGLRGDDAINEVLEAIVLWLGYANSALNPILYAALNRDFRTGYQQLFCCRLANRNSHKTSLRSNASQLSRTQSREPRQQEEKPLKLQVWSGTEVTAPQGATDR

[13] = biological target: T3, Amyloid-beta precursor protein (Homo sapiens, UniProt P05067); experiment: Inhibition of amyloid beta (unknown origin) aggregation at 5 uM relative to control
T3 sequence (P05067 whole entry): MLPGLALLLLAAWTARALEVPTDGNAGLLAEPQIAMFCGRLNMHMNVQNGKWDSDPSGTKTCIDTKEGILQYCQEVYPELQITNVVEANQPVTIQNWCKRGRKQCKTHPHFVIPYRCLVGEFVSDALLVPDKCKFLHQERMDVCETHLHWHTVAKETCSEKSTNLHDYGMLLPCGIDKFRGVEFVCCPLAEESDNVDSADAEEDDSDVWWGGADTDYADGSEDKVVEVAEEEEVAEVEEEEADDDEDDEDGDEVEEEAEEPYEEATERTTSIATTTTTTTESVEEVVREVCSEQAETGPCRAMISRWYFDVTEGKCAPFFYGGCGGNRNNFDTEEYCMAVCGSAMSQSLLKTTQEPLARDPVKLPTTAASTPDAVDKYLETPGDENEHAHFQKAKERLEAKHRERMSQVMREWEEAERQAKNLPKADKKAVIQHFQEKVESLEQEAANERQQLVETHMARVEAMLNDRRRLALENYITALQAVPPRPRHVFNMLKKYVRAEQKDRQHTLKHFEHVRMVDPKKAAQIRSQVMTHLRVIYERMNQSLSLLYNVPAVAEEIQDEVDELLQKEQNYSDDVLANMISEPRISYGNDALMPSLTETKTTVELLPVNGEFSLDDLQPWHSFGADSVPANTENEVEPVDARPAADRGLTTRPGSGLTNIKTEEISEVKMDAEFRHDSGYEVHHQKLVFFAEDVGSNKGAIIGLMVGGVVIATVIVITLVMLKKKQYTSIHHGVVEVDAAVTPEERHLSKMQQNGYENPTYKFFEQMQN

c-Myc/c-Max = c-Myc/c-Max (Homo sapiens, UniProt P01106+P61244); experiment: Inhibition of Myc/Max (unknown origin); format: protein assay
Chain of c-Myc/c-Max (P01106 whole entry): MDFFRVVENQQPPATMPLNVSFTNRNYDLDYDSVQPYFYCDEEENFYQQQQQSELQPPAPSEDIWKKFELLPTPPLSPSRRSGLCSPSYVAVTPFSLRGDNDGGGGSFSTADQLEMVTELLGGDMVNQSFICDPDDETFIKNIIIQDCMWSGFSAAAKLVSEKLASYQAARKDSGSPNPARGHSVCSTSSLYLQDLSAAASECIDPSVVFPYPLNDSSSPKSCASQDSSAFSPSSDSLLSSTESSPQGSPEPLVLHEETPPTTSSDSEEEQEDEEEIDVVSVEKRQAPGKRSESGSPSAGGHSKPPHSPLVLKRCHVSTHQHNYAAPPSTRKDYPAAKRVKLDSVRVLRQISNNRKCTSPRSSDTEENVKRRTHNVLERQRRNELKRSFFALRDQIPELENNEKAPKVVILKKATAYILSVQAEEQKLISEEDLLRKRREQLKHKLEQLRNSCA
Chain of c-Myc/c-Max (P61244 whole entry): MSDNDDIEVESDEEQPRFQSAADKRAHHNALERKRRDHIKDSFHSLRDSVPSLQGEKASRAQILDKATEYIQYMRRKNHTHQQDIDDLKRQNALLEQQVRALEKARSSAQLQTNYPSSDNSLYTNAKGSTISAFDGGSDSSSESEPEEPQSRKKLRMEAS

Daudi = experiment: Antiproliferative activity against human Daudi assessed as inhibition of cell proliferation by MTT assay; format: functional, cell-based
HL-60 = experiment: Antiproliferative activity against (unknown origin) HL-60 assessed as inhibition of cell proliferation by MTT assay; format: functional, cell-based; conditions: Homo sapiens
[14] = biological target: T3, Amyloid-beta precursor protein; experiment: Inhibition of amyloid beta 42 in human HEK293 cells; format: cell-based
[15] = Inhibition of ROMK (unknown origin); parameters: species or system Homo sapiens
HeLa = experiment: cells; conditions: Homo sapiens
Description: Antiproliferative activity against human HeLa cells assessed as reduction in cell viability

[16] = Stability in rat assessed as intrinsic clearance; format: ADME; conditions: CLH
[17] = Binding affinity to Plasmodium falciparum LDH assessed as inhibitory constant
Plasmodium falciparum [18] = experiment: Antimalarial activity against Plasmodium falciparum assessed as parasitic reduction at 10 mg/kg of chloroquine relative to control; format: functional; parameters: scale not given: the % may be the effect or the level left
[19] = Cmax in mouse at 100 mg/kg, ip; format: ADME, organism-based; parameters: dose 100 mg/kg, route ip; conditions: in vivo
[20] = Half life in mouse at 10 mg/kg, po; format: ADME, organism-based; conditions: in vivo
Lactate dehydrogenase = Lactate dehydrogenase (Plasmodium falciparum, UniProt Q0PJ46); experiment: Inhibition of recombinant Plasmodium falciparum LDH
Chain of Lactate dehydrogenase (Q0PJ46 whole entry): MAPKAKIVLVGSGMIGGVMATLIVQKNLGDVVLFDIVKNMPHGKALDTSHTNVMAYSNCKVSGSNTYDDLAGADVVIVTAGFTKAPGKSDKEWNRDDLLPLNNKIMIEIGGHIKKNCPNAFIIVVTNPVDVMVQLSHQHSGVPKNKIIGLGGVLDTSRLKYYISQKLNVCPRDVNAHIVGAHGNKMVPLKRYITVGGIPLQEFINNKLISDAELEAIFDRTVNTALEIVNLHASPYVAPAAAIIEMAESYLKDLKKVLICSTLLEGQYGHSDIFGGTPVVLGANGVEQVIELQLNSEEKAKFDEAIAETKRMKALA

[21] = Cmax in mouse at 100 mg/kg, po; format: ADME, organism-based; parameters: dose 100 mg/kg, route po; conditions: in vivo
Plasmodium falciparum [22] = experiment: Antimalarial activity against Plasmodium falciparum assessed as parasitic reduction at 100 mg/kg relative to control; format: functional; parameters: scale not given: the % may be the effect or the level left
[23] = Half life in mouse at 10 mg/kg, ip; format: ADME, organism-based; conditions: in vivo
[24] = Inhibition of human recombinant LDH
Plasmodium falciparum [25] = experiment: Antimalarial activity against drug sensitive Plasmodium falciparum 3D7; format: functional, organism-based
HCT-116 = experiment: cells; conditions: Homo sapiens
LNCaP = experiment: Antiproliferative activity against human LNCaP cells assessed as reduction in cell viability; format: functional, cell-based
HT-29 = experiment: cells; conditions: Homo sapiens
Description: Antiproliferative activity against human HT-29 cells assessed as reduction in cell viability

[26] = Inhibition of HIF (unknown origin); parameters: species or system Homo sapiens
[27] = Binding affinity to human wild type HIF2alpha assessed as dissociation constant by calorimetry assay
physchem [28] = conditions: octanol/water
Description: Lipophilicity, log P of the compound

Mus musculus = organism: Mus musculus; experiment: Anti-inflammatory activity in LPS-induced inflammatory mouse model assessed as reduction in neutrophil influx; format: functional
[29] = biological target: 3',5'-cyclic-AMP phosphodiesterase 4D (Homo sapiens, UniProt Q08499); experiment: Inhibition of human recombinant PDE4D
Chain of 3',5'-cyclic-AMP phosphodiesterase 4D (Q08499 whole entry): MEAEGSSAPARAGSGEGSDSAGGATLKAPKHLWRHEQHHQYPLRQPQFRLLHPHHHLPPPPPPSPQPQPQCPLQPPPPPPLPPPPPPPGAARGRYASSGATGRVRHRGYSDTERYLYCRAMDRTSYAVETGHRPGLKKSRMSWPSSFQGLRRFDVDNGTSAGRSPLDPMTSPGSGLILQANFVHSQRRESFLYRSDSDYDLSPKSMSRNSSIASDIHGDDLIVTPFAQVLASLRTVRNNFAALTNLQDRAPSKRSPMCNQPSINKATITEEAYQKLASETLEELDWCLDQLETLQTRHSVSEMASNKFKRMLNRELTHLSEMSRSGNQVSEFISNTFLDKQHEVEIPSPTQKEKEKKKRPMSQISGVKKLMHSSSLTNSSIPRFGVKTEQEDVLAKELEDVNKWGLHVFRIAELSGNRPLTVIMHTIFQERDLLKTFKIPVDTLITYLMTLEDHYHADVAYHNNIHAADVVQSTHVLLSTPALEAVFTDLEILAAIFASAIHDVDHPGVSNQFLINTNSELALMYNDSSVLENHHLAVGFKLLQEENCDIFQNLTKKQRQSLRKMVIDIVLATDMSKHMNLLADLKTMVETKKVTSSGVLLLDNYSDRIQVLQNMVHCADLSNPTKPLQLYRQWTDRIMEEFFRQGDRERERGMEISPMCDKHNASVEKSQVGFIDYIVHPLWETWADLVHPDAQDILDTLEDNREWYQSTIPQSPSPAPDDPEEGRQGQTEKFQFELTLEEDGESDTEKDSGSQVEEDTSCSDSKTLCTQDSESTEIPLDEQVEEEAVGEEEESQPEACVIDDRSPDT

[30] = Anti-inflammatory activity against human PBMCs assessed as reduction in LPS-induced TNF-alpha release by ELISA analysis; format: functional, cell-based; conditions: PBMC
Rattus norvegicus = organism: Rattus norvegicus; experiment: Anti-inflammatory activity against ovalbumin induced lung inflammatory rat model assessed as reduction in eosinophil influx; format: functional
physchem [31] = conditions: octanol/water; remark: listed apart in the source
Description: Lipophilicity, log D of the compound

Plasmodium falciparum [32] = experiment: Antimalarial activity against drug resistant Plasmodium falciparum KI; format: functional, organism-based
[33] = Inhibition of recombinant MAPK p38 (unknown origin) assessed as inhibition of MEF2A phosphorylation incubated for 5 mins by SDS-PAGE method; parameters: species or system Homo sapiens

inhibition [1]: 49%
concentration at 2 h [4]: 0.8 µM
concentration at 2 h [5]: 0.43 µM
inhibition [6]: 98%
inhibition [8]: 99%
inhibition [10]: 37%
inhibition [12]: 99%
SMILES: CCCOc1ccc(Nc2nc3nonc3nc2N2CCC(Oc3ccc(Cl)cc3)CC2)cc1
inhibition [2]: 74%
Activity [3]: 51%
Activity (THP-1 [7]): 74%
Activity [9]: 33%
inhibition at 1 µM (THP-1 [11]): 51%

Ki (Histamine H2 receptor): 0.026 µM
SMILES: CN(C)Cc1ccc(CSCCNc2nonc2N)o1

inhibition [13]: 57.1%
SMILES: OC(c1cccc(-c2cc(NCc3ccccc3)c3nonc3c2)c1)C(F)(F)F (stereo not given)

IC50 (c-Myc/c-Max): 33 µM
EC50 (Daudi): 56 µM
EC50 (HL-60): 148 µM
SMILES: O=C(O)c1ccc(-c2ccccc2Nc2ccc([N+](=O)[O-])c3nonc23)cc1

EC50 [14]: 0.27 µM
SMILES: CC(C)CC(C(=O)O)c1cc(Cl)c(OCC2CC2)c(-c2ccc3nonc3c2)c1 (stereo not given)

IC50 [15]: 1.9 µM
SMILES: N#Cc1ccc(CCN2CCN(CCc3ccc4nonc4c3)CC2)cc1

EC50 (HeLa): 0.019 µM
CLint scaled [16]: > 36.7 mL/min/kg
SMILES: Nc1nonc1C(=NO)Nc1ccc(F)c(Cl)c1

Cmax [19]: 158 µM
half-life [20]: 1.6 h
IC50 (Lactate dehydrogenase): 1.1 µM
Cmax [21]: 153 µM
half-life [23]: 1.1 h
IC50 [24]: 54 µM
EC50 (Plasmodium falciparum [25]): 74.4 µM
EC90 (Plasmodium falciparum [25]): > 200 µM
SMILES: O=C(O)c1conc1O
Ki [17]: 0.47 µM
Activity (Plasmodium falciparum [18]): 100%
Activity (Plasmodium falciparum [22]): 30%

IC50 (c-Myc/c-Max): 40 µM
EC50 (Daudi): 3.1 µM
EC50 (HL-60): 9.6 µM
SMILES: O=C(Oc1ccccc1)c1ccccc1Nc1ccc([N+](=O)[O-])c2nonc12

EC50 (HCT-116): 137 µM
EC50 (LNCaP): 238 µM
EC50 (HT-29): 313 µM
SMILES: COc1ccc2c(c1)c(CC(=O)O)c(C)n2C(=O)c1ccc(Cl)cc1 [INDOMETHACIN]

IC50 [26]: 43 µM
Kd [27]: 0.023 µM
logP (physchem [28]): 4.4
SMILES: Fc1cc(Br)cc([C@@H]2C[C@H](c3cccc(Br)c3)n3nnnc3N2)c1

IC50 [29]: 0.041 µM
EC50 [30]: 0.126 µM
SMILES: O=C(O)[C@H]1CC[C@H](c2cc3cccnc3c(-c3cccc(F)c3)n2)CC1
ED50 (Mus musculus): 0.032 µmol/kg
ED50 (Rattus norvegicus): 0.0034 µmol/kg

EC50 [14]: 0.07 µM
SMILES: CC(C)CC(C(=O)O)c1cc(Cl)c(OCC2CC2)c(-c2ccc(C(F)(F)F)cc2)c1 (stereo not given)

SMILES: O=[N+]([O-])c1ccccc1 [NITROBENZENE]
logD (physchem [31]): 1.6

SMILES: O=C(O)c1nsnc1O
EC50 (Plasmodium falciparum [32]): 144 µM
Ki [17]: 0.29 µM
IC50 (Lactate dehydrogenase): 0.14 µM
IC50 [24]: 10.3 µM
EC50 (Plasmodium falciparum [25]): 75.3 µM
EC90 (Plasmodium falciparum [25]): > 170 µM

EC50 (HeLa): 1 µM
SMILES: Nc1nonc1/C(=N/O)NCc1ccccc1

IC50 [33]: 10 µM
SMILES: Cc1ccc(Cl)cc1Nc1cc(Cl)c2nonc2c1[N+](=O)[O-]
